# Measurements: US5830910A (priority 1995, dated 1998)
# “Also recorded” adds a separate entry of the source.
# How the values were obtained:
# [1] = system: cultured hippocampal neurons; assay: calcium ionophore A23187 neurotoxicity; assay type: cell-based, rat; settings: 100 nM, 1 h pretreatment
# Excerpt: (§1) Dissociated embryonic rat hippocampal cell cultures were established and maintained. All procedures conformed with the NIH Guide for the Care and Use of Laboratory Animals and were approved by the University of Kentucky Animal Care and Use Committee. Cultures were maintained on a polyethyleneimine-coated substrate in plastic 35-mm dishes or 96 wall plates (for cell survival studies) or glass-bottom 35-mm dishes (for [Ca^2+ ]i imaging studies). The cell density was ^~ 70-100 cells/mm^2. Cells were maintained in Eagle's minimum essential medium supplemented 10% with fetal bovine serum and containing 20 mM sodium pyruvate. […] Aβ25-35 (Bachem, lot ZJ744) and Aβ1-40 (Bachem, lot ZK600) were stored in the lyophilized form, and stocks were prepared immediately before use by dissolving the peptide at a concentration of 1 mM in sterile distilled water. […] Glutamate and colchicine (Sigma) were prepared as 200-500x stocks in saline. Cytochalasins D and E (Sigma) and calcium ionophore 4-bromo-A23187 (Calbiochem) were prepared as 500x stocks in dimethyl sulfoxide. Vitamin E (α-tocopherol; Sigma) was prepared as a 500x stock in ethanol. Nordihydroguaiaretic acid and FeSo4 were prepared as 500x stocks in sterile water.
# Neuronal survival was quantified by counting viable neurons in the same microscope fields (10x objective) immediately before experimental treatment and at time points after treatment. In addition, cells were grown in 96-well plates and Alamar blue fluorescence (Alamar Laboratories)was quantified by using a fluorescence plate reader. Alamar Blue is a non-fluorescent substrate that, after reduction by cell metabolites, becomes fluorescent. […] Viability of the remaining neurons was assessed by morphological criteria. […] Survival values were expressed as percentages of the initial number of neurons present before experimental treatment. […]
# FIG. 7. Cultures were pretreated for 1 h with 0.2% dimethylsulfoxide (control) or 100 nM cytochalasin D. Calcium ionophore A23187 was then added at the indicated concentrations and neuronal survival was assessed 8 h later. […]
# [2] = system: hippocampal region CA3 neurons; assay: kainate lesion paradigm, CA3 neurons; assay type: in vivo, rat (Sprague-Dawley); settings: for neurons damaged by kainate: intraventricular
# Protocol: A kainate lesion paradigm was employed in adult rats to determine whether cytochalasin D was also excitoprotective. Twenty-four adult male Sprague-Dawley rats (250-300 g) were divided into the indicated experimental groups (4-5 rats/group). Kainate (0.5 µg/[…]) was injected stereotaxically into region CA1 of the right hippocampus of anesthetized rats. Cytochalasin D (the indicated concentration in 1 μl of saline-1% DMSO) or vehicle was infused into the right lateral ventricle during a 5-10 min period immediately following kainate injection. Rats were killed 48 hr later and perfused transcardially with 4% paraformaldehyde. Brain sections (30 μm) were stained with cresyl violet and stained neurons in three adjacent 40X microscope fields of hippocampal region CA3 were counted (5 sections/rat) . The neuronal counts were performed in sections removed approximately 200-400 μm from the injection site. This method results in highly reproducible, 75-99%, neuronal loss in the CA3 region in over 99% of the rats injected with kainate (calculations based on 302 rats receiving intra-hippocampal kainate). […] Approximately 80% of the neurons were killed by kainate in control animals receiving an intracerebroventricular infusion of saline immediately following kainate administration.
# Cresyl violet-stained coronal sections from brains of rats administered kainate alone (left) of kainate plus cytochalasin D (CyD; right). […] Lower micrographs are high magnification of a region of CA3 from the sections shown in the upper panels.
# FIG. 3. Counts of viable neurons were made in region CA3 of Sham-operated rats, and rats infused intraventricularly with vehicle or increasing concentration of cytochalasin D […] unilateral kainate injection into region CA1 of the hippocampus. Neuronal survival in the kainate injected hippocampus is expressed as a percentage of neurons in the contralateral hippocampus. Values represent the mean and SEM (4 or 5 rats/group). *p<0.01 compared to value for sham rats. **p<0.01 compared to value for vehicle-infused rats. (ANOVA with Scheffe's post-hoc test).
# [3] = system: cultured hippocampal neurons; assay: iron (FeSO4) neurotoxicity; assay type: cell-based, rat; settings: 100 nM, 1 h preincubation
# Excerpt: as §1
# (§2) Neuronal survival was quantified by counting viable neurons in the same microscope fields (10x objective) immediately before experimental treatment and at time points after treatment. In addition, cells were grown in 96-well plates and Alamar blue fluorescence (Alamar Laboratories)was quantified by using a fluorescence plate reader. Alamar Blue is a non-fluorescent substrate that, after reduction by cell metabolites, becomes fluorescent. Usually neurons that died in the time intervals (20-48 h) between examination points were absent. Viability of the remaining neurons was assessed by morphological criteria. Neutrons with intact neurites of uniform diameter and a soma with a smooth, round appearance were considered viable, whereas neurons with fragmented neurites and a vacuolated or swollen soma were considered nonviable. Survival values were expressed as percentages of the initial number of neurons present before experimental treatment. Statistical comparisons were made using ANOVA and Scheffe post-hoc tests for pairwise comparisons.
# FIG. 8. Cultures were preincubated 1 h in the presence of 0.5% dimethylsulfoxide (control), 100 nM cytochalasin D, 50 μg/ml vitamin E (VitE), or 2 μM nordihydroguairetic acid (NDGA). Cultures were then exposed for 6 h to the indicated concentrations of FeSO4 and neuronal survival was quantified. Values represent the means and SEM of determinations made in four separate cultures. *P<0.001 compared to value for cultures exposed to 100 μM FeSO4 alone.
# [4] = system: cultured hippocampal neurons; assay: hydrogen peroxide neurotoxicity; assay type: cell-based, rat
# Excerpt: as §1
# as §2, with “Usually neurons that died in the time intervals (20-48 h) between examination points were absent.” left out
# FIG. 15. […] Cultures were pretreated for 1 h with vehicle (Control), 100 nM cytochalasin D (CyD), or 50 μg/ml vitamin E (vE) and then exposed for 20 h to the indicated concentrations of hydrogen peroxide. Data are mean and SEM values of determinations made in four separate cultures.
# [5] = system: growth cone motility of hippocampal neurons; assay: growth cone motility; assay type: cell-based, rat
compound,measurement,setting,value
"C=C1[C@@H](C)[C@H]2[C@H](Cc3ccccc3)NC(=O)[C@]23[C@H](OC(C)=O)/C=C/[C@@](C)(O)C(=O)[C@@H](C)C/C=C/[C@H]3[C@@H]1O [Cytochalasin D, cytochalasin D]",protection against A23187 neurotoxicity,[1],essentially identical to that in control cultures
same,neurons damaged by kainate,[2]; 0.1 μg,20%
same,neurons damaged by kainate,[2]; 1.00 μg,20%
same,reduction in neuronal injury to CA3 neurons after kainate,"[2]; intraventricular infusion, dose related, 48 hr",highly significant reduction in neuronal injury to CA3 neurons; also recorded: marked reduction in the damage
same,effect on neuronal loss induced by iron,[3],not significantly altered
same,effect on neuronal killing by hydrogen peroxide,"[4]; 100 nM, 1 h pretreatment, 20 h",not altered; also recorded: does not protect neurons against hydrogen peroxide toxicity
same,antioxidant activity,[4]; suggested from hydrogen peroxide test,little or no antioxidant activity
same,growth cone motility,[5],inhibit growth cone motility
